The numbers were not newly measured in patent publication US6344215B1, “Methylphenidate modified release formulations” (Eurand America, Inc., priority 2000, dated 2002), which cites them from elsewhere.

Counter-ions that a name gives are not always drawn.

For the data set the following is noted: gastrointestinal tract.

As for `COC(=O)C(c1ccccc1)C1CCCCN1` (stereo not shown) [Methylphenidate Hydrochloride], the absorption entry is “well absorbed throughout the gastrointestinal tract”.
